# ChEMBL document CHEMBL4184101, “Hybrid peptide-small molecule oxytocin analogs are potent and selective agonists of the oxytocin receptor” (Bioorg Med Chem Lett, 2018)
# pEC50: −log10 of the molar value. *1 amine or outer side, *2 acyl side, *3 side chain or, on linkers, in order; H or OH if unused. Where a SMILES comes first, the peptide text is derived from it. Bridges are numbered along the chain shown (N, C = ends). [ ]: non-standard residue; d: D form. The star is where a group is joined. X3 = c1ccc(OC[C@@H]2CCCN2*)cc1; X5 = c1ccc(NC[C@@H]2CCCN2*)cc1; X8 = c1ccc(CC[C@@H]2CCCN2*)cc1; Cysteamide = C(CS[*:3])N[*:1]; X1 = c1ccc([C@@H]2CCCN2*)nc1; X6 = Cc1nnc([C@@H]2CCCN2*)o1; X9 = C1CCN(C2CCN(*)CC2)C1; Pyrrolidide = C1CCN(*)C1; X4 = COC[C@@H]1CCCN1*; X10 = CN1CCCN(*)CC1; X2 = C[C@H]1CCCN1*; X7 = CC(C)CCN(C)*; Mpa = O=C(O)CCS
# What was measured:
# Vasopressin V1a receptor = Vasopressin V1a receptor (Homo sapiens, UniProt P37288); assay: Agonist activity at vasopressin 1a receptor (unknown origin); type: functional
# [1] = Stability in human liver microsomes by LC/MS/MS analysis; type: ADME, microsome; conditions: read-out: Stability
# [2] = biological target: T1, Oxytocin receptor (Homo sapiens) (UniProt P30559); assay: Agonist activity at human OTR expressed in CHO cells assessed as increase in calcium flux after 60 to 120 mins by fluo-4 dye based FLIPR assay relative to control; type: functional, cell-based
# T1 sequence (whole entry): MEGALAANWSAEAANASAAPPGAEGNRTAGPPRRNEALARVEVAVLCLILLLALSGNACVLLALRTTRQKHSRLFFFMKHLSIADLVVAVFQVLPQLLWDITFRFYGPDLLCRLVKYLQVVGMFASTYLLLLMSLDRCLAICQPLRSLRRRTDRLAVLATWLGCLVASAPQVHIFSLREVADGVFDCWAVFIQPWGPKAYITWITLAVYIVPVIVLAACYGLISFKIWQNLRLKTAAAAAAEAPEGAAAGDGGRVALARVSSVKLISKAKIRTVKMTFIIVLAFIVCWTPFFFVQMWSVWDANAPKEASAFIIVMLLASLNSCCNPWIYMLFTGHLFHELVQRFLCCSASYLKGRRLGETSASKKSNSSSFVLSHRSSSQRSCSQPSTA
# Oxytocin receptor = biological target: T2, Oxytocin receptor (Homo sapiens, UniProt P30559); assay: Agonist activity at human OTR expressed in CHO cells assessed as increase in calcium flux after 60 to 120 mins by fluo-4 dye based FLIPR assay; type: functional, cell-based
# T2 sequence (P30559 whole entry): T1 sequence (whole entry)
# Sequence of Vasopressin V1a receptor (P37288 whole entry): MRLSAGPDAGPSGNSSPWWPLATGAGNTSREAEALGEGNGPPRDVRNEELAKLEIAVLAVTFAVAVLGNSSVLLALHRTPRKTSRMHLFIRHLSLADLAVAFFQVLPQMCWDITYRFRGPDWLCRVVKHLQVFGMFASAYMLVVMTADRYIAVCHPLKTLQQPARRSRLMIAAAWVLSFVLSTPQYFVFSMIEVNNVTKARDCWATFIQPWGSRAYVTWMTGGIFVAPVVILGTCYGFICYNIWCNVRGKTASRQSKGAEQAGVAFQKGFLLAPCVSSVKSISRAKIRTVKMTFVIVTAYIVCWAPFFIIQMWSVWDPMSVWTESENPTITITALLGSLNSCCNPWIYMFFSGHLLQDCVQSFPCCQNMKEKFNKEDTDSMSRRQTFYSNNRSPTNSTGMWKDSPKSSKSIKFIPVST
Structure (SMILES),pEC50 (Vasopressin V1a receptor),CLint scaled [1],Efficacy [2],pEC50 (Oxytocin receptor)
CC[C@H](C)[C@@H]1NC(=O)[C@H](Cc2ccc(O)cc2)NC(=O)CCSSC[C@@H](C(=O)N2CCC[C@H]2C(=O)N[C@@H](CC(C)C)C(N)=O)NC(=O)[C@H](CC(N)=O)NC(=O)[C@H](CCC(N)=O)NC1=O,< 6.00,< 8 mL/min/kg,82%,8.74
CC[C@H](C)[C@@H]1NC(=O)[C@H](Cc2ccc(O)cc2)NC(=O)CCSSC[C@@H](C(N)=O)NC(=O)[C@H](CC(N)=O)NC(=O)[C@H](CCC(N)=O)NC1=O,< 6.00,< 8 mL/min/kg,90%,8.27
CC[C@H](C)[C@@H]1NC(=O)[C@H](Cc2ccc(O)cc2)NC(=O)CCSSC[C@@H](C(=O)N2CCC[C@H]2C(=O)N[C@@H](CC(C)C)C(=O)NCC(N)=O)NC(=O)[C@H](CC(N)=O)NC(=O)[C@H](CCC(N)=O)NC1=O,,< 8 mL/min/kg,106%,
CC[C@H](C)[C@@H]1NC(=O)[C@H](Cc2ccc(O)cc2)NC(=O)CCSSCCNC(=O)[C@H](CC(N)=O)NC(=O)[C@H](CCC(N)=O)NC1=O ([Mpa]YIQN-Cysteamide; disulfide 1-C),< 6.00,< 8 mL/min/kg,67%,7.55
CC[C@H](C)[C@@H]1NC(=O)[C@H](Cc2ccc(O)cc2)NC(=O)CCSSC[C@@H](C(=O)N2CCCC2)NC(=O)[C@H](CC(N)=O)NC(=O)[C@H](CCC(N)=O)NC1=O ([Mpa]YIQNC-Pyrrolidide; disulfide 1-6),< 6.00,< 8 mL/min/kg,97%,9.29
CC[C@H](C)[C@@H]1NC(=O)[C@H](Cc2ccc(O)cc2)NC(=O)CCSSC[C@@H](C(=O)N2CCC[C@H]2C(=O)N(C)CCC(C)C)NC(=O)[C@H](CC(N)=O)NC(=O)[C@H](CCC(N)=O)NC1=O ([Mpa]YIQNCP-X7; disulfide 1-6),< 6.00,25.5 mL/min/kg,94%,8.74
CC[C@H](C)[C@@H]1NC(=O)[C@H](Cc2ccc(O)cc2)NC(=O)CCSSC[C@@H](C(=O)N2CCC[C@H]2C(=O)N2CCC(N3CCCC3)CC2)NC(=O)[C@H](CC(N)=O)NC(=O)[C@H](CCC(N)=O)NC1=O ([Mpa]YIQNCP-X9; disulfide 1-6),< 6.00,,98%,8.17
CC[C@H](C)[C@@H]1NC(=O)[C@H](Cc2ccc(O)cc2)NC(=O)CCSSC[C@@H](C(=O)N2CCC[C@H]2C(=O)N2CCCN(C)CC2)NC(=O)[C@H](CC(N)=O)NC(=O)[C@H](CCC(N)=O)NC1=O ([Mpa]YIQNCP-X10; disulfide 1-6),< 6.00,,98%,8.44
CC[C@H](C)[C@@H]1NC(=O)[C@H](Cc2ccc(O)cc2)NC(=O)[C@@H](N)CSSC[C@@H](C(=O)N2CCC[C@H]2C(=O)N[C@@H](CC(C)C)C(=O)NCC(N)=O)NC(=O)[C@H](CC(N)=O)NC(=O)[C@H](CCC(N)=O)NC1=O [OXYTOCIN],,30 mL/min/kg,102%,

# Next, values leading:
pEC50 (Vasopressin V1a receptor),CLint scaled [1],Efficacy [2],pEC50 (Oxytocin receptor),Structure (SMILES)
< 6.00,< 8 mL/min/kg,89%,8.89,CC[C@H](C)[C@@H]1NC(=O)[C@H](Cc2ccc(O)cc2)NC(=O)CCSSC[C@@H](C(=O)N2CCC[C@H]2C(N)=O)NC(=O)[C@H](CC(N)=O)NC(=O)[C@H](CCC(N)=O)NC1=O
< 6.00,< 8 mL/min/kg,80%,9.08,CC[C@H](C)[C@@H]1NC(=O)[C@H](Cc2ccc(O)cc2)NC(=O)CCSSC[C@@H](C(=O)N2CCC[C@H]2c2ccccn2)NC(=O)[C@H](CC(N)=O)NC(=O)[C@H](CCC(N)=O)NC1=O ([Mpa]YIQNC-X1; disulfide 1-6)
< 6.00,< 8 mL/min/kg,84%,9.22,CC[C@H](C)[C@@H]1NC(=O)[C@H](Cc2ccc(O)cc2)NC(=O)CCSSC[C@@H](C(=O)N2CCC[C@@H]2C)NC(=O)[C@H](CC(N)=O)NC(=O)[C@H](CCC(N)=O)NC1=O ([Mpa]YIQNC-X2; disulfide 1-6)
< 6.00,123 mL/min/kg,52%,6.71,CC[C@H](C)[C@@H]1NC(=O)[C@H](Cc2ccc(O)cc2)NC(=O)CCSSC[C@@H](C(=O)N2CCC[C@H]2COc2ccccc2)NC(=O)[C@H](CC(N)=O)NC(=O)[C@H](CCC(N)=O)NC1=O ([Mpa]YIQNC-X3; disulfide 1-6)
< 6.00,< 8 mL/min/kg,91%,9.36,CC[C@H](C)[C@@H]1NC(=O)[C@H](Cc2ccc(O)cc2)NC(=O)CCSSC[C@@H](C(=O)N2CCC[C@H]2COC)NC(=O)[C@H](CC(N)=O)NC(=O)[C@H](CCC(N)=O)NC1=O ([Mpa]YIQNC-X4; disulfide 1-6)
< 6.00,40 mL/min/kg,76%,9.11,CC[C@H](C)[C@@H]1NC(=O)[C@H](Cc2ccc(O)cc2)NC(=O)CCSSC[C@@H](C(=O)N2CCC[C@H]2CNc2ccccc2)NC(=O)[C@H](CC(N)=O)NC(=O)[C@H](CCC(N)=O)NC1=O ([Mpa]YIQNC-X5; disulfide 1-6)
< 6.00,< 8 mL/min/kg,77%,9.22,CC[C@H](C)[C@@H]1NC(=O)[C@H](Cc2ccc(O)cc2)NC(=O)CCSSC[C@@H](C(=O)N2CCC[C@H]2c2nnc(C)o2)NC(=O)[C@H](CC(N)=O)NC(=O)[C@H](CCC(N)=O)NC1=O ([Mpa]YIQNC-X6; disulfide 1-6)
< 6.00,153 mL/min/kg,59%,8.28,CC[C@H](C)[C@@H]1NC(=O)[C@H](Cc2ccc(O)cc2)NC(=O)CCSSC[C@@H](C(=O)N2CCC[C@H]2CCc2ccccc2)NC(=O)[C@H](CC(N)=O)NC(=O)[C@H](CCC(N)=O)NC1=O ([Mpa]YIQNC-X8; disulfide 1-6)
